# Where “and” joins values, the source holds several entries; their conditions need not be identical. Equal entries are not always repeated.
# How the values were obtained:
# [1] = target: T1, MIF (Homo sapiens, UniProt P14174); test: MIF degradation in A549 cells, cell lysate-based ELISA; parameters: endogenous in cells; host or cells: A549 (ATCC CCL-185); details: A549 cells; for degradation [%] 2 μM: vs DMSO, mean±SD n=3
# T1 sequence (P14174 2-115 limits assumed): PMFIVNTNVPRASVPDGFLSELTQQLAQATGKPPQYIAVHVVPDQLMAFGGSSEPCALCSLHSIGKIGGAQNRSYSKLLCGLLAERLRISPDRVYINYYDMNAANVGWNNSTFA
# Method: In addition, A549 cells have been successfully used for assessing activity of cereblon ligand‐based PROTACs previously.[42] Therefore, A549 is a suitable cell line for evaluating the effect of our putative MIF‐directed PROTACs MD1 to MD12 on MIF protein levels. The reduction in MIF levels were monitored in A549 cells that were treated with two different PROTAC concentrations (20 and 2 μM) for 12 h in order to estimate the dose dependency, which is important for PROTACs because of the Hook effect.[35] The MIF levels in cell lysates were analyzed using an enzyme‐linked immunosorbent assay (ELISA).
# S3. ELISA screening of MIF protein level on MIF-directed PROTACs
# Cell culture. Human A549 lung cancer cells (ATCCCCL-185) or HEK293 kidney […]
# containing 10% (v/v) fetal bovine serum (FBS), 100 U/mL penicillin/streptomycin […]
# ELISA. 7×10^5 A549 cells per well were plated in 6-well plates. The next day, cells were treated with a solution of compounds or the vehicle for 12 h. Subsequently, the culture medium was removed and cells were washed twice with cold PBS and collected after trypsin (0.5 mL) degestion. Cells were then lyzed in lysis buffer (150 mM NaCl, 50 mM Hepes pH 7.5, 5 mM EDTA, 0.1% (w/v) NP40) containing protease inhibitor cocktail (Roche, #11836153001) and resuspended vigourously. The supernatant was collected after spinning down at 16 000g at 4 °C for 30 min. The total protein concentration was determined with PierceTM BCA protein assay kit ( ThermoFisher , #23225). The protein concentration was normalized between samples. The relative MIF levels from 1µg total protein were determined by ELISA with the human MIF DuoSet ELISA kit according to the instructions of the manufacturer (R&D systems, #DY289).
# Figure S1. Screening of compounds for MIF degradation activity by cell lysate -based ELISA.
# A549 cells were treated with compounds at (A) 20 or (B) 2 µM for 12 h. Data was normalized […]
# (1 picture or pasted object on this page, not shown here)
# [2] = system: ERK phosphorylation; test: ERK phosphorylation by western blot; type: cell-based, human; details: A549, 2 μM; for effect on pERK levels: 3 and 4 for 24 h, MD15 for 6, 24 or 48 h
# Method: The effect of treatment with MIF‐directed PROTAC MD13 on MIF‐related signaling pathways was investigated by assessment of ERK phosphorylation using western blot analysis. […] Thus treatment with the MIF‐directed PROTAC MD13 inhibits ERK phosphorylation as a MIF‐related signaling event. […]
# ERK signaling pathway study. A549 cells (2x10^5 cells per well) were seeded into each well of a 6-well plate with 2 mL RPMI-1640 medium containing 10% FBS (Costar Europe, Badhoevedorp, The Netherlands), and 1% penicillin/streptomycin solution (Corning). After overnight culturing, the cells were treated with MD13, MD15, or DMSO for the time indicated.
# After that, cells were lysed by RIPA buffer containing 1× PhosSTOP and protease inhibitor (PI) cocktail (Roche, Mannheim, Germany). The BCA Protein Assay Kit (Pierce, Rockford IL, USA) was used to determine the protein concentration. 30 µg protein was separated by a pre-cast 10% NuPAGE Bis-Tris gel (Invitrogen, USA) and then transferred to a polyvinylidene difluoride (PVDF) membrane. After blocking with 5% of skimmed milk for 1 hour at room temperature and incubation with the appropriate primary antibody (pERK, #9101, Cell Signaling, 1:1000; GAPDH, #97166, Cell Signaling, 1:10000) overnight at 4 °C, the membrane was treated with an HRP-conjugated secondary goat anti-rabbit antibody (#P0448, Dako, 1:2000) or rabbit anti-mouse antibody (#P0260, Dako, 1:2000) at room temperature for 1 hour.
# The protein bands were visualized with enhanced chemiluminescence (ECL) solution (GE Healthcare). The figures were quantified with imageJ software based on grayscale. […]
# [3] = system: A549 cell spheroids; test: 3D tumor spheroid assay; type: cell-based, human; details: 12 days; for influence on spheroid tumor growth: 5 μM
# Method: A 3D spheroid model was employed to investigate the effect of longer term MD13 treatment in a more complex model for tumor growth. The 3D spheroid model was established using A549 cancer cells by a method adapted from Feng et al.[48] The spheroids were grown over a 12‐day period in absence or presence of PROTAC MD13. Each spheroid was prepared from about 1000 A549 cells. After three‐day incubation, these spheroids were treated with 1, 2, or 5 μM of MD13 with 72 hours intervals over 12 days. Spheroid growth was monitored by measuring the diameter and this was compared to day 0 of the treatment. The tumor spheroids in MD13 treated groups were significant smaller compared to the control group (Figure 5 B and Figure S9). With continuous exposure to 1, 2, or 5 μM of MD13 for 12 days, the growth of the spheroid tumor volume was inhibited by 42 %, 53 %, and 81 % compared with control group, respectively. […]
# Tumor spheroid assay. A549 cells (1000 cells/well) were seeded onto a 96-well round-bottomed ultra low attachment plate (Corning). After 2 days of incubation without disturbance, the spheroid was treated with indicated compound every 3 days. […]
# (1 picture or pasted object on this page, not shown here) […]
# inverted microscope (Nikon Eclipse Ti) connected with a NIS-elements software. The data were analyzed and plotted with Graphpad Prism8. […]
# cells were seeded in an ultralow attachment 96-well round-bottomed plate (1000 cells/well) to generate tumor spheroids (a single spheroid per well). After initiation, the spheroids were treated with different compounds at the indicated concentrations every three days. DMSO was used as vehicle control. The day of the first treatment was indicated as day 0. (A) Representative images were obtained at the indicated intervals using an inverted microscope. Scale bar: 500 μm. (B) Analysis was carried out using NIS-Elements AR 3.1 software, and growth curves were obtained relative to the untreated spheroids (day 0) and plotted with GraphPad Prism 8. Values are shown as means ± SD (n = 3 spheroids/time point, **p < 0.01 vs control). […]
SMILES,degradation [%] 2 μM ([1]; 12 h),"DC50 ([1]; 12 h, ELISA, read-out: DC50) [nM]","Hook effect ([1]; at 20 μM, ELISA and western-blot)","inhibition at 2 µM ([2]; Homo sapiens, 24-hour treatment) [%]","inhibition at 1 µM ([3]; Homo sapiens, A549, 1 μM, treated every three days, read-out: inhibition of growth of spheroid tumor volume) [%]","inhibition at 2 µM ([3]; Homo sapiens, A549, 2 μM, treated every three days, read-out: inhibition of growth of spheroid tumor volume) [%]","inhibition at 5 µM ([3]; Homo sapiens, A549, 5 μM, treated every three days, read-out: inhibition of growth of spheroid tumor volume) [%]",effect on pERK levels [2],influence on spheroid tumor growth [3]
O=C1CCC(N2C(=O)c3cccc(NCCCCCCCC(=O)Nc4ccc(N5Cc6ccc(O)cc6OC5=O)cc4)c3C2=O)C(=O)N1 (stereo not drawn) [MD13],91% and 91±5%,~200,Hook effect,~50,42,53,81,–,–
CN1C(=O)CCC(N2C(=O)c3cccc(NCCCCCCCC(=O)Nc4ccc(N5Cc6ccc(O)cc6OC5=O)cc4)c3C2=O)C1=O (stereo not drawn) [MD15],not capable of inducing MIF degradation and n.s.,–,–,–,–,–,–,no significant decrease,no significant influence
COc1ccc(N2Cc3ccc(O)cc3OC2=O)cc1OC [compound 3],–,–,–,–,–,–,–,no significant decrease,no significant influence

# Reference: article PMC8362126, “Proteolysis Targeting Chimera (PROTAC) for Macrophage Migration Inhibitory Factor (MIF) Has Anti‐Proliferative Activity in Lung Cancer Cells” (Angewandte Chemie (International Ed. in English), 2021)
